These results are taken from patent publication US3937838A, “Orally active bronchospasmolytic compounds and their preparation” (priority 1966, dated 1976).

“Also recorded” adds a separate entry of the source. Read-outs that look alike come from different tables or passages of the source.

The subject of one data set is guinea pig trachea. Kind of data set: Bronchospasmolytic effect in vitro (Example 13). Particulars: based on ED50-values; weight basis; Table 7. As to the method: The trachea from a guinea pig was dissected out and spirally cut. It was mounted in a water-jacketed bath (37°C.) in Krebs solution and aerated with oxygen (95%) and carbon dioxide (5%). Pilocarpine (2 μg/ml) was added. The load was adjusted to about 2 g and relaxations in the trachea were recorded by means of a Grass force displacement transducer and a Grass polygraph model 5 (see Example 5 above). The cumulative method was used (-)-Epinephrine was used as reference. The comparisons presented in Table 7 are based on ED50 -values.

The nature of data set [1]: Toxicity study in mice (Example 18). Format: in vivo. Conditions: mouse, in vivo, mice (NMRI, male), 24 hours, read-out: LD 50 + Standard error. The protocol:
The toxicity was studied in mice (NMRI, male, 18-28 g) 24 hours after i.v. and oral administration. The animals were observed during five days. No further deaths occurred.

For data set [2], the system named is sphincter of Oddi (choledochoduodenal sphincter). Put plainly: Effect on sphincter of Oddi (Example 5e). It is filed as in vivo, cat. The protocol:
The effect of terbutaline on the choledochoduodenal sphincter of young, healthy cats was studied. Young animals weighing at least 2.0 kg were used. After being deprived of food but not water for 24 hours, they were anesthetized with pentobarbitol (40 mg/kg i.p.). The terminal portion of a common bile duct was isolated and cannulated toward the duodenum. The hepatic part of the bile duct was drained to prevent distention. The pressure was continuously recorded by the open tip technique. Details of the experimental set up have been published by Liedberg and Halabi [Acta. Chir. Scand. 136 (1970) page 208.] Heart rate was recorded on all experiments and blood pressure by arterial cannulation in some.
Referring to the upper curve of FIGS. 7 and 8, the heart rate is continuously recorded. Concurrent records are made in the middle curve and lower curve of the pressures measured respectively in the common bile duct and in the lower duodenum.
As a control in this test, the animal was also treated with 0.5 international units per kg of cholecystokinin (CCK).
In a second test of the effect of terbutaline and isoprenaline on the sphincter (see FIG. 8), the duodenal motility was measured without being affected by CCK.

Data set [3] relates to bronchoconstriction by histamine aerosol. Kind of data set: Protecting effect against histamine aerosol in guinea pigs (Example 15). Format: in vivo, guinea pig. Conditions: Cavia porcellus, read-out: ED50 (protecting 50 percent of the animals for more than 4 minutes). From the text: Male guinea pigs (200--300 g) were used. Bronchoconstriction was produced by letting the animals inhale a histamine aerosol.

The mark [4] stands for this setting: anesthetized cats, concurrent with sphincter effect.

With `CC(C)(C)NCC(O)c1cc(O)cc(O)c1` (racemic) [terbutaline, 1-(3',5'-dihydroxyphenyl)-2-(t-butylamino)-ethanol], in the data set with guinea pig trachea, the “bronchospasmolytic effect x (-)epinephrine” value is listed as 0.8 ± 0.1. The figures for the LD50 at 24 h in data set [1] (iv) and in data set [1] (po) were 52 ± 3 mg/kg and 3200 mg/kg, respectively. Further, the “number of cats responding (the other five of 25)” value in data set [2] (5-10 μg/kg) was “five”. Besides, the “duodenal pressure / motility” value in data set [2] (setting [4]) is listed as “only slightly affects; also recorded: minimum effects”. The heart rate result in data set [2] (setting [4]) is recorded as “only slightly affects the heart rate; also recorded: minimum effects on heart rate”. The “common bile duct pressure / sphincter relaxation” value in data set [2] (anesthetized cats, i.v., 1 μg/kg terbutaline in FIG. 7, FIG. 8) is listed as “substantially reduces the common bile duct pressures; also recorded: relaxed the sphincter”. Besides, in data set [2] (dose range 0.5-4.0 μg/kg), the “number of cats responding (of 25)” value turned out to be 20 cats. The ED50 – broadly, the dose that gives a 50% effect, or the effect in half of the subjects – was 0.4 mg/kg in data set [3] (0.5 h, oral, 30 minutes before histamine) and 0.15 mg/kg in data set [3] (ip, 0.25 h, i.p., 15 minutes before histamine).
